Experimental findings from patent US11046680B1, “Heteroaryl-substituted triazoles as APJ receptor agonists” (priority 2016, dated 2021) are described below.

The experiment has as its target human APJ receptor (Homo sapiens (Human), UniProt P35414). The experiment is described as follows: biochemical. Conditions: [35S]GTPγS binding, CHO membranes expressing human APJ receptor; read-out: Activity hAPJ SPA EC50 IP. The class given is biochemical. The essentials:
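GTPγS binding on membranes from CHO cells stably expressing FLAG-tagged human APJ, with optimized GDP, MgCl2 and NaCl; incubated 90 min at RT before imaging read-out.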
Background: Binding of GTPγS marks nucleotide exchange on a G protein.

Molecules are shown by their SMILES.

Chain of human APJ receptor (P35414 whole entry): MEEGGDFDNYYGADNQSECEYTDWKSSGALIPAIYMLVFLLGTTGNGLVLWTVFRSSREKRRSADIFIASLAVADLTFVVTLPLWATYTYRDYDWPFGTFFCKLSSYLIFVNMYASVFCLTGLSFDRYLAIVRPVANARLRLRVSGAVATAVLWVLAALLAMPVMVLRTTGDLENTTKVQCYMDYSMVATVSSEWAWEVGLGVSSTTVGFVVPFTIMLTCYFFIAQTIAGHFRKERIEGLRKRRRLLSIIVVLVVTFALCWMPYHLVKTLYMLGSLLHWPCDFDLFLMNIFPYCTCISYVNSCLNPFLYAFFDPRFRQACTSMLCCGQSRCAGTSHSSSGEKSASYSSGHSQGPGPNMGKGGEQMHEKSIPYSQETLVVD

On to `COc1cccc(OC)c1-n1c(NS(=O)(=O)[C@@H](C)[C@H](OC)c2ncc(Cl)cn2)nnc1-c1cncc(C)n1` [Example 214.0, (1R,2S)-1-(5-chloro-2-pyrimidinyl)-N-(4-(2,6-dimethoxyphenyl)-5-(6-methyl-2-pyrazinyl)-4H-1,2,4-triazol-3-yl)-1-methoxy-2-propanesulfonamide], for which the half-maximal effective concentration (EC50) (in general, the concentration giving half of the maximal effect) amounted to 0.4 nM.

For the compound `COc1cccc(OC)c1-n1c(NS(=O)(=O)[C@@H](C)[C@H](C)c2ncc(C)cn2)nnc1-c1cnn(C)c1` [Example 215.0, (2S,3R)-N-(4-(2,6-dimethoxyphenyl)-5-(1-methyl-1H-pyrazol-4-yl)-4H-1,2,4-triazol-3-yl)-3-(5-methyl-2-pyrimidinyl)-2-butanesulfonamide], the concentration giving a half-maximal response (EC50) is 0.42 nM.

With `COc1cccc(OC)c1-n1c(NS(=O)(=O)[C@@H](C)[C@H](OC)c2cnc(C)cn2)nnc1-c1cc2n(n1)CCC2` [Example 216.0, (1R,2S)-N-(5-(5,6-dihydro-4H-pyrrolo[1,2-b]pyrazol-2-yl)-4-(2,6-dimethoxyphenyl)-4H-1,2,4-triazol-3-yl)-1-methoxy-1-(5-methyl-2-pyrazinyl)-2-propanesulfonamide], the 50% effective concentration (EC50) was found to be 3.7 nM.

As to `CCO[C@H](c1ncc(C)cn1)[C@H](C)S(=O)(=O)Nc1nnc(-c2cc3n(n2)CCC3)n1-c1c(OC)cccc1OC` [Example 217.0, (1R,2S)-N-(5-(5,6-dihydro-4H-pyrrolo[1,2-b]pyrazol-2-yl)-4-(2,6-dimethoxyphenyl)-4H-1,2,4-triazol-3-yl)-1-ethoxy-1-(5-methyl-2-pyrimidinyl)-2-propanesulfonamide], the half-maximal effective concentration (EC50) is 2.8 nM.

Take `COc1cccc(OC)c1-n1c(NS(=O)(=O)[C@@H](C)[C@H](O)c2ncc(C)cn2)nnc1-c1ccn(C(F)F)n1` [Example 218.0, (1R,2S)-N-(5-(1-(difluoromethyl)-1H-pyrazol-3-yl)-4-(2,6-dimethoxyphenyl)-4H-1,2,4-triazol-3-yl)-1-hydroxy-1-(5-methyl-2-pyrimidinyl)-2-propanesulfonamide]: the EC50 amounted to 0.87 nM.

`COc1cccc(OC)c1-n1c(NS(=O)(=O)[C@@H](C)[C@H](C)c2ncc(C)cn2)nnc1-c1cc2n(n1)CCC2` [Example 219.0, (2S,3R)-N-(5-(5,6-dihydro-4H-pyrrolo[1,2-b]pyrazol-2-yl)-4-(2,6-dimethoxyphenyl)-4H-1,2,4-triazol-3-yl)-3-(5-methyl-2-pyrimidinyl)-2-butanesulfonamide]: the EC50 was determined as 1.7 nM.

Regarding `COc1cccc(OC)c1-n1c(NS(=O)(=O)[C@@H](C)[C@H](O)c2ncc(C)cn2)nnc1-c1cc2n(n1)CCC2` [Example 220.0, (1R,2S)-N-(5-(5,6-dihydro-4H-pyrrolo[1,2-b]pyrazol-2-yl)-4-(2,6-dimethoxyphenyl)-4H-1,2,4-triazol-3-yl)-1-hydroxy-1-(5-methyl-2-pyrimidinyl)-2-propanesulfonamide], the concentration giving a half-maximal response (EC50) was 6.6 nM.

As for `COc1cccc(OC)c1-n1c(NS(=O)(=O)[C@@H](C)[C@H](C)c2ncc(Cl)cn2)nnc1-c1cc2n(n1)CCC2` [Example 221.0, (2S,3R)-3-(5-chloro-2-pyrimidinyl)-N-(5-(5,6-dihydro-4H-pyrrolo[1,2-b]pyrazol-2-yl)-4-(2,6-dimethoxyphenyl)-4H-1,2,4-triazol-3-yl)-2-butanesulfonamide], the EC50 worked out at 0.32 nM.

As for `COc1cccc(OC)c1-n1c(NS(=O)(=O)[C@@H](C)[C@H](C)c2ncc(Cl)cn2)nnc1-c1ccn(C(F)F)n1` [Example 222.0, (2S,3R)-3-(5-chloro-2-pyrimidinyl)-N-(5-(1-(difluoromethyl)-1H-pyrazol-3-yl)-4-(2,6-dimethoxyphenyl)-4H-1,2,4-triazol-3-yl)-2-butanesulfonamide], the EC50 is 0.11 nM.

Regarding `COc1cccc(OC)c1-n1c(NS(=O)(=O)[C@@H](C)[C@H](OC)c2cnc(C)cn2)nnc1-c1ccn(C(F)F)n1` [Example 223.0, (1R,2S)-N-(5-(1-(difluoromethyl)-1H-pyrazol-3-yl)-4-(2,6-dimethoxyphenyl)-4H-1,2,4-triazol-3-yl)-1-methoxy-1-(5-methyl-2-pyrazinyl)-2-propanesulfonamide], the EC50 was found to be 2.9 nM.
